The target in test [1] is T1, BSAP-ΔPA (Bacillus subtilis, UniProt P25152, DEL101-225, form not given).
T1 construct: gene ywaD; protease-associated domain (101-225) deleted by inverse PCR; 330 residues before signal peptide removal; plasmid PMA5, host B. subtilis WB600; purified from culture supernatant
The test can be described thus: steady-state hydrolysis kinetics, non-linear regression. To be noted: free enzyme; assay as in previous study, conditions not printed here. The test is classed as biochemical. The source says:
steady-state hydrolysis kinetics, non-linear regression on BSAP-ΔPA

Test [2] has as its target T2, BSAP (Bacillus subtilis, UniProt P25152).
T2 construct: gene ywaD; host B. subtilis WB600; purified as in previous study
Described as above. The test is classed as biochemical. The settings on record: free enzyme; assay as in previous study, conditions not printed here. From the text:
steady-state hydrolysis kinetics, non-linear regression on BSAP

T1 sequence (P25152 other isoform, or with tags, fused parts or gaps DEL101-225): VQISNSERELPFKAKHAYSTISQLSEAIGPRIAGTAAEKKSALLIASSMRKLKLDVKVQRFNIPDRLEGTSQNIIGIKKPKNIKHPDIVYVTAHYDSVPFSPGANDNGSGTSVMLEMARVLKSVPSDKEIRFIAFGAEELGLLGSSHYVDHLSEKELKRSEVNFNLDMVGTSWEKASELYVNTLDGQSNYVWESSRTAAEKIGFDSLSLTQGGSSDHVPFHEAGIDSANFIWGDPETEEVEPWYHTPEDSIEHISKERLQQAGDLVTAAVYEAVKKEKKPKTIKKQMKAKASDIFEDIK
T2 sequence (P25152 32-455): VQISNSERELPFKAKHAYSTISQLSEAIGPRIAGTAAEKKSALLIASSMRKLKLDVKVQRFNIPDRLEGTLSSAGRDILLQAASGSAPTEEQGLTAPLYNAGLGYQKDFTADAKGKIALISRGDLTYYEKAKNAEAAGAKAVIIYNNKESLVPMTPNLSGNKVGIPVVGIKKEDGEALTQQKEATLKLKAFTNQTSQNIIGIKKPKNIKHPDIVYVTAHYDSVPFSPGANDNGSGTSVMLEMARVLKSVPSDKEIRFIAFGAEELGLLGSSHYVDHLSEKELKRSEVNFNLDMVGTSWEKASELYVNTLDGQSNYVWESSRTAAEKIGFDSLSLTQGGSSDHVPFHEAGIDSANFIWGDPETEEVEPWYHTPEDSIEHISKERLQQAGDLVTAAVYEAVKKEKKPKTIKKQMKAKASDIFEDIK

In the case of `CC(C)C[C@H](N)C(=O)Nc1ccc([N+](=O)[O-])cc1` [Leu-pNA], the results for the “K m” value in test [1] and in test [2] were 2.43 ± 0.23 mmol and 2.52 ± 0.11 mmol, respectively.

For the origin of these results see article PMC3954873, “Enhanced Thermal Stability and Hydrolytic Ability of Bacillus subtilis Aminopeptidase by Removing the Thermal Sensitive Domain in the Non-Catalytic Region” (PLoS ONE, 2014).
